Source: patent EP4628519A1, “ORGANOGERMANIUM(IV) CARBOXYLATES AND MIXTURES OF GERMANIUM CARBOXYLATES WITH ORGANIC ACID ANHYDRIDES AS CATALYSTS” (Technische Universität Graz, priority 2024, dated 2025)
Values belong to the molecule of their own block, whether it stands above or below them.

Legend:
[1] = Solubility of the germanium carboxylates in solvents (gravimetry or NMR)
Stability in water = conditions: result in words

SMILES: CC(=O)OC(=O)C[CH2][Ge]([O]C(C)=O)([O]C(C)=O)[O]C(C)=O [(PAA)Ge(OAc)3]
- solubility in organic solvents ([1]; result in words): good soluble

SMILES: CC(=O)[O][Ge]([O]C(C)=O)([O]C(C)=O)[O]C(C)=O [Ge(OAc)4, germanium(IV) tetraacetate]
- stability in water (Stability in water): stable
- solubility in H2O ([1]; H2O, result in words): good soluble
- m(Ge(OAc)4) ([1]; Solvent Benzene, Method NMR): 2.7 g/L
- m(Ge(OAc)4) ([1]; Solvent Chloroform, Method NMR): 4.8 g/L
- m(Ge(OAc)4) ([1]; Solvent DCM, Method Gravimetry): 4.2 g/L
- m(Ge(OAc)4) ([1]; Solvent H2O, Method Gravimetry): 170 g/L
- m(Ge(OAc)4) ([1]; Solvent THF, Method Gravimetry): 4.3 g/L
- m(Ge(OAc)4) ([1]; Solvent Toluene, Method Gravimetry): 2.6 g/L
- solubility ([1]; in toluene, at room temperature): 2600 µg/mL
- solubility in organic solvents ([1]; result in words): poorly soluble

SMILES: CCCCCCCCCCCC(=O)[O][Ge]([O]C(=O)CCCCCCCCCCC)([O]C(=O)CCCCCCCCCCC)[O]C(=O)CCCCCCCCCCC [Ge(OLau)4, germanium(IV) tetralaurate]
- solubility, times higher ([1]; Ge(OLau)4 relative to Ge(OAc)4): around 2 times
- solubility ([1]; in benzene, determined via NMR): 11000 µg/mL
- solubility in organic solvents ([1]; result in words): poorly soluble

More lines, now with the values ahead:

- solubility in organic solvents ([1]; result in words): good soluble
SMILES: COC(=O)C[CH2][Ge]([O]C(C)=O)([O]C(C)=O)[O]C(C)=O [(PME)Ge(OAc)3]

- solubility in organic solvents ([1]; result in words): good soluble
SMILES: CC(=O)[O][Ge]([O]C(C)=O)([O]C(C)=O)[c]1ccccc1 [PhGe(OAc)3]
